Results taken from the supplement of paper PMC4314810.
± gives the standard deviation of the averaged measurements.

These sequences were tested on MCF7 (assay: HRG-induced Akt activation (dPAkt = log2 pAkt/Akt HRG-stimulated minus log2 pAkt/Akt basal) (log2 ratio difference); higher = stronger HRG-induced Akt(T308) phosphorylation). Details: miRNA mimic concentration 10 nM; time after transfection 72 h; heregulin 10 ng/ml; stimulation time 1 h.
Outline: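 Akt activation induced by heregulin was calculated as the difference between stimulated and unstimulated log ratios of phospho-Akt to total Akt, then averaged across replicates. The ratio was taken as log2(pAkt/Akt) from In-Cell Western readings of phospho-Akt(T308) and total Akt on an Odyssey, corrected for column-wise fixation decay. Before reading, MCF7 cells ([…], 96-well plates) transfected with 879 miRNA mimics at 10 nM final via Lipofectamine RNAiMax were, after 72 h, given 10 ng/ml heregulin-beta1 for 1 h or no stimulus, then fixed with 4% PFA. Two biological replicates were run.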

In order of falling “HRG-induced Akt activation (log2)” value:
1. GUGUCUGCUUCCUGUGGGA  2.6 ± 0.069
2. UGAGAACUGAAUUCCAUGGGUU  2.55 ± 0.058
3. UGCUGGAUCAGUGGUUCGAGUC  2.32 ± 0.36
4. UAGGUAGUUUCCUGUUGUUGGG  2.19 ± 0.23
5. UUAUCAGAAUCUCCAGGGGUAC  2.16 ± 0.2
6. UGAGAACCACGUCUGCUCUGAG  2.16 ± 0.27
7. GUGUGUGGAAAUGCUUCUGC  2.16 ± 0.41
8. CACCAGGCAUUGUGGUCUCC  2.13 ± 0.28
9. GAAGUUGUUCGUGGUGGAUUCG  2.11 ± 0.022
10. CAGUAACAAAGAUUCAUCCUUGU  2.1 ± 0.17
11. CUCCGUUUGCCUGUUUCGCUG  2.07 ± 0.2
12. UGGAAUGUAAGGAAGUGUGUGG  2.05 ± 0.28
13. UACCCUGUAGAACCGAAUUUGUG  1.99 ± 0.17
14. GUGAAAUGUUUAGGACCACUAG  1.97 ± 0.049
15. AGGAAUGUUCCUUCUUUGCC  1.91 ± 0.039
16. UCAAGAGCAAUAACGAAAAAUGU  1.91 ± 0.14
17. CGUGUUCACAGCGGACCUUGAU  1.89 ± 0.39
18. AGUGAAUGAUGGGUUCUGACC  1.879 ± 0.002
19. CCAGUCCUGUGCCUGCCGCCU  1.88 ± 0.41
20. CAGGCCAUAUUGUGCUGCCUCA  1.88 ± 0.66
21. UCGGAUCCGUCUGAGCUUGGCU  1.88 ± 0.18
22. GUGUCUGGGCGGACAGCUGC  1.87 ± 0.23
23. AAUCAUACAGGGACAUCCAGUU  1.86 ± 0.16
24. AGUAUGUUCUUCCAGGACAGAAC  1.83 ± 0.087
25. UGAGGGGCAGAGAGCGAGACUUU  1.83 ± 0.26
26. AGACCCUGGUCUGCACUCUAUC  1.82 ± 0.41
27. UCCUGUACUGAGCUGCCCCGAG  1.79 ± 0.1
28. CCAGUGGGGCUGCUGUUAUCUG  1.78 ± 0.29
29. UCCCUGAGACCCUUUAACCUGUGA  1.77 ± 0.13
30. UUGUGUCAAUAUGCGAUGAUGU  1.768 ± 0.00038
31. UCCAGCAUCAGUGAUUUUGUUG  1.77 ± 0.17
32. CUUUCAGUCGGAUGUUUGCAGC  1.75 ± 0.2
33. UUGUACAUGGUAGGCUUUCAUU  1.7 ± 0.31
34. CAAUCACUAACUCCACUGCCAU  1.69 ± 0.37
35. AAGAUGUGGAAAAAUUGGAAUC  1.68 ± 0.17
36. AGGGGUGCUAUCUGUGAUUGA  1.68 ± 0.19
37. CUGGUACAGGCCUGGGGGACAG  1.68 ± 0.29
38. ACUGCAUUAUGAGCACUUAAAG  1.66 ± 0.41
39. AGGCAUUGACUUCUCACUAGCU  1.66 ± 0.32
40. CAGUUAUCACAGUGCUGAUGCU  1.66 ± 0.42
41. UAGAGUUACACCCUGGGAGUUA  1.66 ± 0.19
42. UAAUACUGCCUGGUAAUGAUGA  1.65 ± 0.49
43. AUCAUAGAGGAAAAUCCAUGUU  1.64 ± 1
44. GGGCGCCUGUGAUCCCAAC  1.62 ± 0.015
45. AUGUAUGUGUGCAUGUGCAUG  1.62 ± 0.4
46. UGCAACUUACCUGAGUCAUUGA  1.61 ± 0.13
47. AUCGGGAAUGUCGUGUCCGCCC  1.6 ± 0.039
48. AGGACCUGCGGGACAAGAUUCUU  1.6 ± 0.091
49. AGAGGUUGCCCUUGGUGAAUUC  1.6 ± 0.19
50. CAAAUUCGUAUCUAGGGGAAUA  1.57 ± 0.036
51. UCUUGGAGUAGGUCAUUGGGUGG  1.56 ± 0.046
52. CAGCAGCACACUGUGGUUUGU  1.54 ± 0.46
53. UUUGGCACUAGCACAUUUUUGCU  1.535 ± 0.007
54. UUUAGAGACGGGGUCUUGCUCU  1.54 ± 0.51
55. UCUUGUGUUCUCUAGAUCAGU  1.53 ± 0.22
56. AAAGCGCUUCCCUUCAGAGUG  1.53 ± 0.33
57. CUGACUGUUGCCGUCCUCCAG  1.53 ± 0.13
58. CUCCUGAGCCAUUCUGAGCCUC  1.48 ± 0.25
59. UCGCCUCCUCCUCUCCC  1.47 ± 0.17
60. UCGUUUGCCUUUUUCUGCUU  1.46 ± 0.3
61. AAAGUAGCUGUACCAUUUGC  1.44 ± 0.56
62. CGGGUCGGAGUUAGCUCAAGCGG  1.44 ± 0.098
63. CGAAUCAUUAUUUGCUGCUCUA  1.44 ± 0.25
64. GUGCAUUGUAGUUGCAUUGCA  1.43 ± 0.074
65. GAACGCGCUUCCCUAUAGAGGGU  1.42 ± 0.13
66. UCACUCCUCUCCUCCCGUCUU  1.4 ± 0.36
67. CCAAAACUGCAGUUACUUUUGC  1.39 ± 0.13
68. AUUGAUCAUCGACACUUCGAACGCAAU  1.383 ± 0.0097
69. AAUAAUACAUGGUUGAUCUUU  1.38 ± 0.066
70. AGCCUGGAAGCUGGAGCCUGCAGU  1.35 ± 0.14
71. CAUGGUUCUGUCAAGCACCGCG  1.34 ± 0.18
72. UUCAACGGGUAUUUAUUGAGCA  1.34 ± 0.24
73. UCAAAACUGAGGGGCAUUUUCU  1.34 ± 0.13
74. CAACACCAGUCGAUGGGCUGU  1.34 ± 0.34
75. CUCCCACUGCUUCACUUGACUA  1.32 ± 0.27
76. ACUUCACCUGGUCCACUAGCCGU  1.3 ± 0.29
77. CCUAUUCUUGGUUACUUGCACG  1.29 ± 0.1
78. UGAGCGCCUCGACGACAGAGCCG  1.29 ± 0.043
79. AAGCUGCCAGUUGAAGAACUGU  1.23 ± 0.26
80. AGAGGAUACCCUUUGUAUGUU  1.23 ± 0.53
81. UAGUACCAGUACCUUGUGUUCA  1.19 ± 0.3
82. CUGACCUAUGAAUUGACAGCC  1.18 ± 0.15
83. AACAUAGAGGAAAUUCCACGU  1.17 ± 0.5
84. CAUGCCUUGAGUGUAGGACCGU  1.16 ± 0.11
85. UCCUGCGCGUCCCAGAUGCCC  1.15 ± 0.34
86. AUCACAUUGCCAGGGAUUUCC  1.12 ± 0.24
87. UUCCUAUGCAUAUACUUCUUUG  1.11 ± 0.32
88. UUGUGCUUGAUCUAACCAUGU  1.1 ± 0.016
89. UUAUAAUACAACCUGAUAAGUG  1.04 ± 0.33
90. UGAAACAUACACGGGAAACCUC  1.0374 ± 0.0008
91. UUUCAAGCCAGGGGGCGUUUUUC  0.989 ± 0.21
92. AAAAGUAAUUGCGGAUUUUGCC  0.977 ± 0.53
93. UGGAGAGAAAGGCAGUUCCUGA  0.965 ± 0.16
94. AAACCUGUGUUGUUCAAGAGUC  0.883 ± 0.023
95. GUGCCAGCUGCAGUGGGGGAG  0.883 ± 0.036
96. AAGUGCUGUCAUAGCUGAGGUC  0.879 ± 0.58
97. CUGGGAGAGGGUUGUUUACUCC  0.876 ± 0.34
98. CUGCAAUGUAAGCACUUCUUAC  0.874 ± 0.36
99. UGUAAACAUCCUACACUCUCAGC  0.867 ± 0.099
100. CCUGCAGCGACUUGAUGGCUUCC  0.841 ± 0.6
101. UAGUGCAAUAUUGCUUAUAGGGU  0.808 ± 0.069
102. AUGCUGACAUAUUUACUAGAGG  0.706 ± 0.25
103. CAAAGCGCUUCUCUUUAGAGUGU  0.7 ± 0.83
104. UGGCUCAGUUCAGCAGGAACAG  0.611 ± 0.18
105. UCAGUGCAUCACAGAACUUUGU  0.53 ± 0.045
106. AAAGUGCAUCCUUUUAGAGGUU  0.411 ± 0.64
